Measured values: patent US11021435B2, “Serotonin receptor-targeting compounds and methods” (priority 2014, dated 2021)
“Also recorded” adds a separate entry of the source.

Key:
[1] = target: T1, adrenergic α1A receptor (Homo sapiens, UniProt P35348); test: Off-target binding affinity, adrenergic α1A
T1 construct: expressed in transfected cells; host or cells: HEK293, transient
T1 sequence (P35348 1-466): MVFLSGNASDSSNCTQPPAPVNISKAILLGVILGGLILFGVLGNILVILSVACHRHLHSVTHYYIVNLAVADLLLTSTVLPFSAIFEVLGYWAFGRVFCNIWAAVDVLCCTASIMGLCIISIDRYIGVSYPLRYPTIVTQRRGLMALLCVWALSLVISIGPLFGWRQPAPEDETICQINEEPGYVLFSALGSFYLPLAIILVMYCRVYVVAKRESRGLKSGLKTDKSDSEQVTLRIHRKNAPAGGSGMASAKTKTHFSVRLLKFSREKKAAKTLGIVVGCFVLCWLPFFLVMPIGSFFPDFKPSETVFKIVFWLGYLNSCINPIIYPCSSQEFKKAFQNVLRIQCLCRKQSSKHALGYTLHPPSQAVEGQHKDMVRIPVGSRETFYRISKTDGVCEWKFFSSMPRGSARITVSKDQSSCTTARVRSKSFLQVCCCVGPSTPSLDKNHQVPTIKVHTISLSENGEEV

[2] = target: T2, 5-HT2C (Homo sapiens, UniProt P28335); test: Functional assay at 5-HT2C, relative to 5-HT; format: cell-based; set-up: expressed in transfected cells; host or cells: HEK293, transient
T2 sequence (P28335 33-458): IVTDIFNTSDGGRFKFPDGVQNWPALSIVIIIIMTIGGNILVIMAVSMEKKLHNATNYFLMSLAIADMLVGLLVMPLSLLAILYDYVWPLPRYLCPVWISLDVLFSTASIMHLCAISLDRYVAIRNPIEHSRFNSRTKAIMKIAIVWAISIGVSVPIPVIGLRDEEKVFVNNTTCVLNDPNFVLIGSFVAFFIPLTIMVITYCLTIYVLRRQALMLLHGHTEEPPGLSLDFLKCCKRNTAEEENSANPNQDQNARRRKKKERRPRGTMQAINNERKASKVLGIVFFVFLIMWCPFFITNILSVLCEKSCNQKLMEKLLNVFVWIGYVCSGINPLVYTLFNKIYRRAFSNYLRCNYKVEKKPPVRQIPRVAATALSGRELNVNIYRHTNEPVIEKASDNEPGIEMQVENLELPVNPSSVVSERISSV

[3] = target: T3, 5-HT2A (Homo sapiens, UniProt P28223); test: Binding affinity, HEK293 cells transiently over-expressing human 5-HT2A; set-up: expressed in transfected cells; host or cells: HEK293, transient; details: for Ki: human, mean (SEM)
[4] = target: T4, 5-HT2B (Homo sapiens, UniProt P41595); test: Functional assay at 5-HT2B, relative to 5-HT; format: cell-based; set-up: expressed in transfected cells; host or cells: HEK293, transient; details: for Functional activity at 5-HT2B, in words: up to 100 μM
[5] = target: T4, 5-HT2B; test: Binding affinity, HEK293 cells transiently over-expressing human 5-HT2B; set-up: expressed in transfected cells; host or cells: HEK293, transient; details: mean (SEM)
[6] = target: T5, dopamine D2 receptor (Homo sapiens, UniProt P14416); test: Off-target binding affinity, dopamine D2
T5 construct: expressed in transfected cells; host or cells: HEK293, transient

[7] = target: T6, 5-HT2C receptors (5-HT2C-INI) (Homo sapiens, UniProt P28335); test: Binding affinity, HEK293 cells transiently over-expressing human 5-HT2C; details: human 5-HT2C-INI
T6 construct: expressed in transfected cells; host or cells: HEK293, transient
T6 sequence (P28335 33-458): T2 sequence (P28335 33-458)

[8] = target: T7, mouse 5-HT2A receptor (Mus musculus, UniProt P35363); test: Binding affinity, HEK293 cells transiently expressing mouse 5-HT2A; details: for Ki: mouse, mean (SEM), read-out: Affinity Ki m5-HT2A
T7 construct: expressed in transfected cells; host or cells: HEK293, transient

[9] = target: T8, human 5-HT7 receptors (Homo sapiens, UniProt P34969); test: Functional assay, 5-HT7 Gs-cAMP signaling, relative to AS-19; format: cell-based; details: for Functional activity at 5-HT7, in words / EC50: Gs-cAMP signaling
T8 construct: expressed in transfected cells

[10] = test system: C57BI/6J mice; test: DOI-elicited head-twitch response (HTR) in C57BI/6J mice; details: for DOI-elicited HTR: C57BI/6J mice, 5-FPT up to 5.6 mg/kg, AS-19 10 mg/kg, DPAT 0.5 mg/kg
Excerpt: The 5-HT2A receptor is a predominant 5-HT receptor in the cortex, and serves important excitation modulation functions on glutamate pyramidal and GABA neurons.

[11] = target: T9, mouse 5-HT2C receptor (m5-HT2C-VNV) (Mus musculus, UniProt P34968, I157V/I161V); test: Binding affinity, HEK293 cells transiently expressing mouse 5-HT2C; details: for Ki: mouse m5-HT2C-VNV
T9 construct: expressed in transfected cells; host or cells: HEK293, transient
T9 sequence (P34968 33-459 I157V/I161V): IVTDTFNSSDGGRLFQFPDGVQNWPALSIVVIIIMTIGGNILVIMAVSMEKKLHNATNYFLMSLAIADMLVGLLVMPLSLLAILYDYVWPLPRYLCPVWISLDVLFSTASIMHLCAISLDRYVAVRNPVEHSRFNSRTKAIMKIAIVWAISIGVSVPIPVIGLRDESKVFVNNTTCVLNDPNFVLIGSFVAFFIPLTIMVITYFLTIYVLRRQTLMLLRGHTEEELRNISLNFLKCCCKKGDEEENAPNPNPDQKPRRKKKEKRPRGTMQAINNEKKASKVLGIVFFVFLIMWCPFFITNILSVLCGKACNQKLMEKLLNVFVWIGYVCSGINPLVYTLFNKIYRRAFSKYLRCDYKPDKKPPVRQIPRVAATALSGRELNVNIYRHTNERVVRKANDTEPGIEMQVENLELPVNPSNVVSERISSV

[12] = target: T10, human 5-HT7 receptors (5-HT7a) (Homo sapiens, UniProt P34969); test: Radioligand competition binding ([3H]5-CT), HEK293 cells stably expressing human 5-HT7 receptors; details: for Ki: human 5-HT7a, mean (SEM), at least three independent experiments, read-out: Affinity Ki 5-HT7
T10 construct: expressed in transfected cells
Excerpt: FIGS. 4A-4C show the effects of 5-FPT are stereospecific. […] Data are expressed as the mean±SEM.

[13] = target: T3, 5-HT2A; test: Functional assay at 5-HT2A, relative to 5-HT; format: cell-based; set-up: expressed in transfected cells; host or cells: HEK293, transient; details: for Functional activity at 5-HT2A, in words: no activation stated up to 100 μM
[14] = % of maximal response relative to 5-HT, mean (SEM)
[15] = % of maximal response relative to AS-19, mean (SEM)

T3 sequence (P28223 whole entry): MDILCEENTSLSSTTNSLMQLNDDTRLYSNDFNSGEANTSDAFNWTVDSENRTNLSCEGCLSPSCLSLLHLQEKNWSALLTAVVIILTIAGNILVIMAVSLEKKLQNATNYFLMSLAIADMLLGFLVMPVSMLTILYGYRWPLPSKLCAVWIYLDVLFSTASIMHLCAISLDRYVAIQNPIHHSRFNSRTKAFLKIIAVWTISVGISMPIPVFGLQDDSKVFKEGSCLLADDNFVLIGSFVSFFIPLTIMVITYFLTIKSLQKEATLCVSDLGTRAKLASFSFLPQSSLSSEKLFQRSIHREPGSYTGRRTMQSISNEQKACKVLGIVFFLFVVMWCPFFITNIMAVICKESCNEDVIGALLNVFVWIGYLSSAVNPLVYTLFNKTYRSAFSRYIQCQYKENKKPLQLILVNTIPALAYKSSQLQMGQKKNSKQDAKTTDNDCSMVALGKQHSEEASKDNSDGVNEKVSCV
T4 sequence (P41595 whole entry): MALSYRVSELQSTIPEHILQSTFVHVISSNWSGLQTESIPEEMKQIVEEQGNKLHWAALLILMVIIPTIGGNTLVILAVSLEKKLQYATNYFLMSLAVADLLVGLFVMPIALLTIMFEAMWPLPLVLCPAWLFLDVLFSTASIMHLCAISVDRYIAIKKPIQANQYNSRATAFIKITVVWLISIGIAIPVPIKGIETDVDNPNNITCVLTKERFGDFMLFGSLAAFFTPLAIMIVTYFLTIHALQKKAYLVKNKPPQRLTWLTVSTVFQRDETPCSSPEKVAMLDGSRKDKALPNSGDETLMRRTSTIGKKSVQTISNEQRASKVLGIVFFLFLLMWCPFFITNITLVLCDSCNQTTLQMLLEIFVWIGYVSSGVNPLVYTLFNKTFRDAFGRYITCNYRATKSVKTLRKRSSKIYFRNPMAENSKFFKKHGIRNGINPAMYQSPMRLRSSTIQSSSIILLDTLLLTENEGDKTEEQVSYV
T7 sequence (P35363 whole entry): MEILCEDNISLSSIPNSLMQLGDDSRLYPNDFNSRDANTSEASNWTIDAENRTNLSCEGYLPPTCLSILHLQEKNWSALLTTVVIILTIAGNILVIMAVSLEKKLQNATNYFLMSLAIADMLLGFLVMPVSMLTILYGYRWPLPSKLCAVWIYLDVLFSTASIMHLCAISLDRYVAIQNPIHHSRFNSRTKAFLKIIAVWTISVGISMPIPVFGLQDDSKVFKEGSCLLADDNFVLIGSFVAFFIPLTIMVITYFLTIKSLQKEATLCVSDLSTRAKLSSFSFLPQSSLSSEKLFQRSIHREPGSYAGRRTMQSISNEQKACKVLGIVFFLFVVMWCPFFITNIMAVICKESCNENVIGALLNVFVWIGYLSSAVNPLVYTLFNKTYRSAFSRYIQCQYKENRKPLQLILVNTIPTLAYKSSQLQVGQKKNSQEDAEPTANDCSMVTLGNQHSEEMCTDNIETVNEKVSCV
T10 sequence (P34969 1-445 isoform P34969-2): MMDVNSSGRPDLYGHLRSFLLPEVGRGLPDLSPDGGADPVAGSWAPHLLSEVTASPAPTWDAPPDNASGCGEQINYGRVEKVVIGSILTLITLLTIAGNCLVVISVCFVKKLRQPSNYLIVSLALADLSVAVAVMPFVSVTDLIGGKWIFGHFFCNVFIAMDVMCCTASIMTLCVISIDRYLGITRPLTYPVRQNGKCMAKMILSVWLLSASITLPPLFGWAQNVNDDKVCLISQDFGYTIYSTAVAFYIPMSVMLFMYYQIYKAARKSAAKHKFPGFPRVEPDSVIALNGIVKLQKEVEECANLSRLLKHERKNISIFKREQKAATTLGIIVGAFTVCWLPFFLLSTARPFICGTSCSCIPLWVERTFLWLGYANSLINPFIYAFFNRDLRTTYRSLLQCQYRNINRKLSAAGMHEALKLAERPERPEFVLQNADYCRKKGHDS
T8 sequence (P34969 1-445 isoform P34969-2): as above
T5 sequence (P14416 whole entry): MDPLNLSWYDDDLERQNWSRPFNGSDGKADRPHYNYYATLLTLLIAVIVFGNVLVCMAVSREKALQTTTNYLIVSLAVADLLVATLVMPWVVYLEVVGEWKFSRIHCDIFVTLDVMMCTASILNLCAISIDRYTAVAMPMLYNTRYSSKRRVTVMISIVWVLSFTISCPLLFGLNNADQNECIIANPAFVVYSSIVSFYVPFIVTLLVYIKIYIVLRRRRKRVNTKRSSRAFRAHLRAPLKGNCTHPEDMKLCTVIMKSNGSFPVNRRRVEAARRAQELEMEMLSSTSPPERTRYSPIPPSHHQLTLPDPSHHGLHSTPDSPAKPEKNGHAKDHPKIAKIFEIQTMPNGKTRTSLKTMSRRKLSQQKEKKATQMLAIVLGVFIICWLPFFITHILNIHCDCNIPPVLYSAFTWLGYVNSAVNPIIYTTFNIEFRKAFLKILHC

Row | SMILES | Ki [1] | Functional activity at 5-HT2C, in words [2] | Ki [3] | Functional activity at 5-HT2B, in words [4] | Ki [5] | Ki [6] | Ki [8] | Functional activity at 5-HT7, in words [9] | EC50 ([9]; mean (SEM)) | DOI-elicited HTR ([10]; DOI 1 mg/kg) | Ki [12] | Functional activity at 5-HT2A, in words [13] | other results
1 | CN(C)C1CCc2c(cccc2-c2ccccc2F)C1 (single isomer, unassigned; (+)) [(+)-5-FPT, 5-(2′-fluorophenyl)-N,N-dimethyl-1,2,3,4-tetrahydronaphthalen-2-amine] | > 10000 nM | nearly full-efficacy agonist | 886 nM | devoid of 5-HT2B activity | 60 nM | > 1000 nM | 632 nM | partial agonist | 34 nM | dose-dependently attenuated the DOI-elicited HTR; also recorded: significantly attenuated the DOI HTR; also recorded: dose-dependently blocks | 5.8 nM | very low potency, partial agonist | Emax [2, 14]: 87%; EC50 ([2]; mean (SEM)): 230 nM; Affinity at 5-HT2A receptors, in words [3]: very low; EC50 5-HT2B ([4]; Inactive = no activation up to 100 μM): Inactive; EMAX 5-HT2B ([4]; relative to 5-HT, Inactive = no activation up to 100 μM): Inactive; Ki ([7]; mean (SEM)): 0.269 µM; Emax [9, 15]: 33%; DOI-elicited HTR, compound given 120 min (2 hrs) before testing ([10]; 5.6 mg/kg, DOI 1 mg/kg): remained significant; also recorded: retains efficacy; DOI-elicited HTR, compound given 180 min (3 hrs) before testing ([10]; 5.6 mg/kg, DOI 1 mg/kg): did not block the DOI HTR; DOI-elicited HTR after oral administration ([10]; oral gavage 3 mg/kg 10 min prior to subcutaneous 1 mg/kg DOI): significantly attenuated the DOI HTR; also recorded: attenuates the HTR; Mouse 5-HT2C versus human 5-HT2C receptor affinity [11]: ~2.5 times; Ki ([11]; mean (SEM)): 0.644 µM; 5-HT7 affinity, (+)-enantiomer more potent than (−)-enantiomer ([12]; ratio of Ki values): about 80 times; Emax [13, 14]: 39%; EC50 ([13]; mean (SEM)): 3530 nM
2 | CN(C)C1CCc2c(cccc2-c2ccccc2F)C1 (single isomer, unassigned; (-)) [(−)-5-FPT, 5-(2′-fluorophenyl)-N,N-dimethyl-1,2,3,4-tetrahydronaphthalen-2-amine] | > 10000 nM | low-potency | 119 nM | did not activate | 684 nM | > 1000 nM | 147 nM | partial agonism; also recorded: low-potency | 378 nM | substantially less efficacious than (+)-5-FPT | 460 nM | did not activate | Higher affinity than (+)-5-FPT at human 5-HT2A receptors [3]: ~8 fold; Ki ([7]; bound given in μM): > 1 µM; Higher affinity than (+)-5-FPT at mouse 5-HT2A receptors [8]: ~4 fold; EMAX 5-HT7 [9, 15]: 29%; 5-HT7 functional potency, (−)-enantiomer less potent than (+)-isomer ([9]; ratio of EC50 values): about 11 times; Ki ([11]; bound given in μM): > 1 µM
